This is an account of results in patent US20120308662A1, “PARTICULATE PREPARATION AND METHOD FOR PRODUCING THE SAME” (NITTO DENKO CORPORATION, priority 2011, published 2012).

Data set [1] in a line: Dissolution test, flow-through cell method of the Japanese Pharmacopoeia. The data set is classed as physicochemical. Particulars: Tamsulosin hydrochloride. The procedure: According to the flow-through cell method disclosed in the Japanese Pharmacopoeia, the test was carried out using a dissolution medium which was one of 1st fluid for dissolution test (pH 1.2), 2nd fluid for dissolution test (pH 6.8), and a disodium hydrogen phosphate-citric acid buffer solution at pH 7.2 (obtained by dissolving 7.1 g of dehydrated disodium hydrogen phosphate in water and adjusting the total volume to be 1000 mL, and adjusting the pH to 7.2 by adding, to the obtained solution, a solution obtained by dissolving 5.3 g of citric acid monohydrate in water and adjusting the total volume to be 1000 mL).
Swinnex Filter Holder 25 mm (from Nippon Millipore) was used for a cell. In order to prevent flowing out of the particulate formulations, a support screen (25 mm stainless, from Nippon Millipore), Durapore Membrane Filters (PVDF, Hydrophilic, 0.45 μm, 25 mm, from Nippon Millipore), and a silicon gasket 25 mm (Swinnex Filter Holder from Nippon Millipore) were successively installed. Masterflex L/S (Model 7524-50 from Cole Parmer Instrument COMPANY) was used as a pump and a dissolution medium was transported at 2.5 mL/min. Besides that, the test was carried out according to the flow-through cell method disclosed in the Japanese Pharmacopeia. An eluate was sampled 10, 30, 60 minutes after starting the test and the dissolution amount of the drug in the eluate was measured by high performance liquid chromatography (HPLC) and the dissolution rate to the initial drug content was calculated.

Data set [2] is described as follows: Measurement of average particle diameter of particulate formulation (automatic particle image analyzer). The data set is classed as physicochemical. Particulars: particle diameter of 50% by volume; 20000 or more particles. As for the experimental part: Herein, the “average particle diameter” means the particle diameter of 50% by volume of the entire particles and may be measured by using an “automatic particle image analyzer” (a particle image analyzer is an apparatus for measuring the particle diameter from images of photographed particles) and a “laser diffraction particle size distribution analyzer” (or a “laser diffraction/scattering particle size distribution analyzer”).
The average particle diameter was measured using 20000 or more particles with an automatic particle image analyzer (Morphologi (registered trade name)-G3 from Malvern Instruments).

Where a name gives a salt, the structure may show the parent alone.

In the case of `CCOc1ccccc1OCCN[C@H](C)Cc1ccc(OC)c(S(N)(=O)=O)c1` [Comparative Example 9, Tamsulosin hydrochloride], the “Elution rate ratio between pH 6.8 and pH 1.2” value in data set [1] (60 min) worked out at 2.4. For the same compound, the “Drug dissolution under a condition of pH 1.2, in words” value in data set [1] (pH 1.2) is recorded as “high drug dissolution rate”. The “Pharmaceutical elution rate 60 minutes after starting the test(%)” value is given as 36.7% in data set [1] (pH 1.2, 60 min) and 88.4% in data set [1] (pH 6.8, 60 min). Further, the “Drug dissolution under a condition of pH 6.8, in words” value in data set [1] (pH 6.8) was “high drug dissolution rate”. Also, the “Average particle diameter of particulate formulations” value in data set [2] was 2.7 μm.
